How the values were obtained:
Experiment in all cases: Minimal inhibitory concentration (M.I.C.), agar dilution method
Settings in all cases: TSA, inoculum 10^7 /ml
[1] = test system: S. aureus 1840; type: cell-based, Staphylococcus aureus
Text: (§1) (a) Determination of minimal inhibitory concentrations (Tables 1 to 8):
(§2) Procedure: agar dilution method

[2] = test system: S. aureus 209P; type: cell-based, Staphylococcus aureus
Text: as §1, §2

[3] = test system: E. coli NIHJ JC-2; type: cell-based, Escherichia coli
Text: as §1, §2

[4] = test system: E. coli T-7; type: cell-based, Escherichia coli
Text: as §1, §2

[5] = test system: E. coli 0-111; type: cell-based, Escherichia coli
Outline: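 MIC against E. coli O-111 was determined by agar dilution.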

[6] = test system: K. pneumoniae DT; type: cell-based, Klebsiella pneumoniae
Text: as §1, §2

[7] = test system: K. pneumoniae GN 3835; type: cell-based, Klebsiella pneumoniae
Text: as §1, §2

[8] = test system: S. marcescens IFO 12648; type: cell-based, Serratia marcescens
Text: as §1, §2

[9] = test system: S. marcescens TN 24; type: cell-based, Serratia marcescens
Text: as §1, §2

[10] = test system: P. vulgaris GN 4413; type: cell-based, Proteus vulgaris
Text: as §1, §2

[11] = test system: P. vulgaris IFO 3988; type: cell-based, Proteus vulgaris
Text: as §1, §2

[12] = test system: P. mirabilis GN 4359; type: cell-based, Proteus mirabilis
Text: as §1, §2

[13] = test system: P. morganii IFO 3168; type: cell-based, Proteus morganii
Text: as §1, §2

[14] = test system: P. rettgeri GN4733; type: cell-based, Proteus rettgeri
Text: as §1, §2

[15] = test system: P. rettgeri TN 338; type: cell-based, Proteus rettgeri
Text: as §1, §2

[16] = test system: E. cloacae TN 1282; type: cell-based, Enterobacter cloacae
Text: as §1, §2

[17] = test system: C. freundii GN 1706; type: cell-based, Citrobacter freundii
Text: as §1, §2

[18] = test system: C. freundii GN 99; type: cell-based, Citrobacter freundii
Text: as §1, §2

## CNC(=O)O/N=C(\C(=O)NC1C(=O)N2C(C(=O)O)=C(CSc3nnnn3CCO)CSC12)c1csc(=N)[nH]1 (stereo not drawn) [Example IV - 4]
[1]
  minimal inhibitory concentration (M.I.C.): 3.13
[2]
  minimal inhibitory concentration (M.I.C.): 3.13
[3]
  minimal inhibitory concentration (M.I.C.): ≤ 0.2
[4]
  minimal inhibitory concentration (M.I.C.): 3.13
[5]
  minimal inhibitory concentration (M.I.C.): ≤ 0.2
[6]
  minimal inhibitory concentration (M.I.C.): ≤ 0.2
[7]
  minimal inhibitory concentration (M.I.C.): 0.39
[8]
  minimal inhibitory concentration (M.I.C.): 3.13
[9]
  minimal inhibitory concentration (M.I.C.): 3.13
[10]
  minimal inhibitory concentration (M.I.C.): 12.5
[11]
  minimal inhibitory concentration (M.I.C.): ≤ 0.2
[12]
  minimal inhibitory concentration (M.I.C.): ≤ 0.2
[13]
  minimal inhibitory concentration (M.I.C.): ≤ 0.2
[14]
  minimal inhibitory concentration (M.I.C.): 0.39
[15]
  minimal inhibitory concentration (M.I.C.): ≤ 0.2
[16]
  minimal inhibitory concentration (M.I.C.): 3.13
[17]
  minimal inhibitory concentration (M.I.C.): 0.39
[18]
  minimal inhibitory concentration (M.I.C.): ≤ 0.2

## CNC(=O)O/N=C(\C(=O)NC1C(=O)N2C(C(=O)O)=C(CSc3nnc(CO)n3C)CSC12)c1csc(=N)[nH]1 (stereo not drawn) [Example IV - 5]
[1]
  minimal inhibitory concentration (M.I.C.): 6.25
[2]
  minimal inhibitory concentration (M.I.C.): 6.25
[3]
  minimal inhibitory concentration (M.I.C.): ≤ 0.2
[4]
  minimal inhibitory concentration (M.I.C.): 1.56
[5]
  minimal inhibitory concentration (M.I.C.): ≤ 0.2
[6]
  minimal inhibitory concentration (M.I.C.): ≤ 0.2
[7]
  minimal inhibitory concentration (M.I.C.): 0.39
[8]
  minimal inhibitory concentration (M.I.C.): 3.13
[9]
  minimal inhibitory concentration (M.I.C.): 3.13
[10]
  minimal inhibitory concentration (M.I.C.): 25
[11]
  minimal inhibitory concentration (M.I.C.): 0.39
[12]
  minimal inhibitory concentration (M.I.C.): 0.39
[13]
  minimal inhibitory concentration (M.I.C.): 0.39
[14]
  minimal inhibitory concentration (M.I.C.): 0.78
[15]
  minimal inhibitory concentration (M.I.C.): ≤ 0.2
[16]
  minimal inhibitory concentration (M.I.C.): 3.13
[17]
  minimal inhibitory concentration (M.I.C.): 0.78
[18]
  minimal inhibitory concentration (M.I.C.): 0.39

## CNC(=O)O/N=C(\C(=O)NC1C(=O)N2C(C(=O)O)=C(CSc3nnc(CC(N)=O)s3)CSC12)c1csc(=N)[nH]1 (stereo not drawn) [Example IV - 6]
[1]
  minimal inhibitory concentration (M.I.C.): 3.13
[2]
  minimal inhibitory concentration (M.I.C.): 1.56
[3]
  minimal inhibitory concentration (M.I.C.): ≤ 0.2
[4]
  minimal inhibitory concentration (M.I.C.): 3.13
[5]
  minimal inhibitory concentration (M.I.C.): ≤ 0.2
[6]
  minimal inhibitory concentration (M.I.C.): ≤ 0.2
[7]
  minimal inhibitory concentration (M.I.C.): 0.39
[8]
  minimal inhibitory concentration (M.I.C.): 3.13
[9]
  minimal inhibitory concentration (M.I.C.): 3.15
[10]
  minimal inhibitory concentration (M.I.C.): 25
[11]
  minimal inhibitory concentration (M.I.C.): ≤ 0.2
[12]
  minimal inhibitory concentration (M.I.C.): 0.39
[13]
  minimal inhibitory concentration (M.I.C.): ≤ 0.2
[14]
  minimal inhibitory concentration (M.I.C.): 0.39
[15]
  minimal inhibitory concentration (M.I.C.): ≤ 0.2
[16]
  minimal inhibitory concentration (M.I.C.): 3.13
[17]
  minimal inhibitory concentration (M.I.C.): ≤ 0.78
[18]
  minimal inhibitory concentration (M.I.C.): ≤ 0.2

## CNC(=O)O/N=C(\C(=O)NC1C(=O)N2C(C(=O)O)=C(CSc3nc(CC(=O)O)cs3)CSC12)c1csc(=N)[nH]1 (stereo not drawn) [Example IV - 7]
[1]
  minimal inhibitory concentration (M.I.C.): 12.5
[2]
  minimal inhibitory concentration (M.I.C.): 12.5
[3]
  minimal inhibitory concentration (M.I.C.): 0.78
[4]
  minimal inhibitory concentration (M.I.C.): 6.25
[5]
  minimal inhibitory concentration (M.I.C.): ≤ 0.2
[6]
  minimal inhibitory concentration (M.I.C.): ≤ 0.2
[7]
  minimal inhibitory concentration (M.I.C.): 0.39
[8]
  minimal inhibitory concentration (M.I.C.): 3.13
[9]
  minimal inhibitory concentration (M.I.C.): 6.25
[10]
  minimal inhibitory concentration (M.I.C.): 50
[11]
  minimal inhibitory concentration (M.I.C.): ≤ 0.2
[12]
  minimal inhibitory concentration (M.I.C.): ≤ 0.2
[13]
  minimal inhibitory concentration (M.I.C.): 0.78
[14]
  minimal inhibitory concentration (M.I.C.): 0.39
[15]
  minimal inhibitory concentration (M.I.C.): ≤ 0.2
[16]
  minimal inhibitory concentration (M.I.C.): 12.5
[17]
  minimal inhibitory concentration (M.I.C.): 3.13
[18]
  minimal inhibitory concentration (M.I.C.): 0.78

## CNC(=O)O/N=C(\C(=O)NC1C(=O)N2C(C(=O)O)=C(CSc3nc(C)ns3)CSC12)c1csc(=N)[nH]1 (stereo not drawn) [Example IV - 8]
[1]
  minimal inhibitory concentration (M.I.C.): 1.56
[2]
  minimal inhibitory concentration (M.I.C.): 0.78
[3]
  minimal inhibitory concentration (M.I.C.): 1.56
[4]
  minimal inhibitory concentration (M.I.C.): 6.25
[5]
  minimal inhibitory concentration (M.I.C.): 0.39
[6]
  minimal inhibitory concentration (M.I.C.): 0.39
[7]
  minimal inhibitory concentration (M.I.C.): 3.13
[8]
  minimal inhibitory concentration (M.I.C.): 6.25
[9]
  minimal inhibitory concentration (M.I.C.): 6.25
[10]
  minimal inhibitory concentration (M.I.C.): 6.25
[11]
  minimal inhibitory concentration (M.I.C.): 0.39
[12]
  minimal inhibitory concentration (M.I.C.): 0.78
[13]
  minimal inhibitory concentration (M.I.C.): 3.13
[14]
  minimal inhibitory concentration (M.I.C.): 0.78
[15]
  minimal inhibitory concentration (M.I.C.): ≤ 0.2
[16]
  minimal inhibitory concentration (M.I.C.): 6.25
[17]
  minimal inhibitory concentration (M.I.C.): 3.13
[18]
  minimal inhibitory concentration (M.I.C.): 0.78

## CNC(=O)O/N=C(\C(=O)NC1C(=O)N2C(C(=O)O)=C(CSc3cnn[nH]3)CSC12)c1csc(=N)[nH]1 (stereo not drawn) [Example IV - 9]
[1]
  minimal inhibitory concentration (M.I.C.): 3.13
[2]
  minimal inhibitory concentration (M.I.C.): 3.13
[3]
  minimal inhibitory concentration (M.I.C.): 0.78
[4]
  minimal inhibitory concentration (M.I.C.): 3.13
[5]
  minimal inhibitory concentration (M.I.C.): ≤ 0.2
[6]
  minimal inhibitory concentration (M.I.C.): ≤ 0.2
[7]
  minimal inhibitory concentration (M.I.C.): 0.78
[8]
  minimal inhibitory concentration (M.I.C.): 6.25
[9]
  minimal inhibitory concentration (M.I.C.): 6.25
[10]
  minimal inhibitory concentration (M.I.C.): 25
[11]
  minimal inhibitory concentration (M.I.C.): 0.39
[12]
  minimal inhibitory concentration (M.I.C.): 0.39
[13]
  minimal inhibitory concentration (M.I.C.): 0.78
[14]
  minimal inhibitory concentration (M.I.C.): 1.56
[15]
  minimal inhibitory concentration (M.I.C.): ≤ 0.2
[16]
  minimal inhibitory concentration (M.I.C.): 6.25
[17]
  minimal inhibitory concentration (M.I.C.): 1.56
[18]
  minimal inhibitory concentration (M.I.C.): 0.78

## CNC(=O)O/N=C(\C(=O)NC1C(=O)N2C(C(=O)O)=C(CSc3nnc(C)o3)CSC12)c1csc(=N)[nH]1 (stereo not drawn) [Example IV - 10]
[1]
  minimal inhibitory concentration (M.I.C.): 3.13
[2]
  minimal inhibitory concentration (M.I.C.): 1.56
[3]
  minimal inhibitory concentration (M.I.C.): 0.39
[4]
  minimal inhibitory concentration (M.I.C.): 6.25
[5]
  minimal inhibitory concentration (M.I.C.): ≤ 0.2
[6]
  minimal inhibitory concentration (M.I.C.): ≤ 0.2
[7]
  minimal inhibitory concentration (M.I.C.): 0.78
[8]
  minimal inhibitory concentration (M.I.C.): 6.25
[9]
  minimal inhibitory concentration (M.I.C.): 6.25
[10]
  minimal inhibitory concentration (M.I.C.): 25
[11]
  minimal inhibitory concentration (M.I.C.): 0.39
[12]
  minimal inhibitory concentration (M.I.C.): 0.39
[13]
  minimal inhibitory concentration (M.I.C.): 0.39
[14]
  minimal inhibitory concentration (M.I.C.): 0.78
[15]
  minimal inhibitory concentration (M.I.C.): ≤ 0.2
[16]
  minimal inhibitory concentration (M.I.C.): 3.13
[17]
  minimal inhibitory concentration (M.I.C.): 0.78
[18]
  minimal inhibitory concentration (M.I.C.): 0.39
